Data: patent publication US20130053323A1, “METHODS AND USE RELATED TO HUMANIN AND HUMANIN-LIKE PEPTIDES” (priority 2009, published 2013)
Entries after “also recorded” stand apart in the source; their conditions may differ.

Legend:
[1] = tested on: fetal rat metatarsal bones; assay: Longitudinal growth of cultured fetal rat metatarsal bones; assay type: cell-based
Method: The three middle metatarsal bone rudiments were dissected out from the paws of 20-day-old embryos (E20) (De Luca, Barnes et al. 2001). After dissection, bones were transferred to 24-well plates, one bone per well and cultured in 0.5 ml phenol-red MEM medium supplemented with 0.2% endotoxin-free fraction BSA, […] β-glycerophosphate, 0.05 mg/ml ascorbic acid and 100 μg/ml penicillin/streptomycin at 37° C. under 5% CO2 in humidified atmosphere. Medium was changed every 2-3 days. Images were captured at days 0, 2, 5, 7, 9 and 12 of culture, using a Hamamatsu C4742-95 digital camera mounted on a Nikon SMZ-U microscope. The Image-Pro plus™ (Media Cybernetics, USA) software was used to measure longitudinal growth. Metatarsal bone growth is expressed as a percentage of the length at the day of dissection (regarded as day 0). Treatment with CT (bortezomib), dexamethasone and/or HNG (S14G) was started 2-4 hours after dissection. All isolated bones were pooled and then randomly divided into the different treatment groups (4 to 6 bones per group). Each experiment was repeated at least 3 times.
The data shown in FIG. 2A indicates novel growth promoting/protective effects of humanin analog HNG (S14G) on longitudinal bone growth in cultured fetal rat metatarsal bones. […] Briefly, fetal rat metatarsal bones were pre-treated with different concentrations (mentioned in the figure) of HNG (S14G), 30 min prior to addition of Dexa. […] (n=4-6 bones/group)
CT (bortezomib) is a cytotoxic drug known to cause critical alterations in cells/tissues and disturb the cellular homeostasis. To test the effect of CT (bortezomib) on chondocytes and longitudinal bone growth, the established in vitro model of fetal rat metatarsal bones was used. These bones were collected as described in material and methods, cultured and treated with different concentrations of CT (bortezomib) under sterile conditions for up to 12 days. […] Apoptosis was analyzed in whole growth plate sections of 12-day cultured rat metatarsal bones (perichondrium excluded) by applying the TUNEL technique to detect DNA fragmentation.
In an attempt to block and prevent the negative effects on growth after CT (bortezomib)-treatment, recently discovered humanin analog HNG (S14G) was tested in vitro in fetal rat metatarsal bones.

[2] = tested on: apoptosis inducing factor (AIF) and BAX; assay: Western immunoblotting of pro-apoptotic proteins in C5.18 chondrocytic cell line; assay type: cell-based, rat; settings: 100 nM HNG/1000 nM bortezomib, 6hrs
Method: Western immunoblotting to study protein expression was performed in the rat C5.18 chondrocytic cell line after treatment with 1000 nM CT (bortezomib) or 100 nM humanin analog HNG (S14G)/1000 nM CT (bortezomib (Btz)) for 6hrs. […] By adding humanin analog HNG (S14G), the up-regulation and activation of the two pro-apoptotic proteins were suppressed. […] As an internal control the house-keeping gene, GAPDH (35 kDa) was used. The experiment was repeated twice.

type-X collagen = assay: Immunohistochemistry for type-X collagen in tibia growth plate; assay type: in vivo, mice
Method: Four weeks old mice (female, FVB) were injected with Dexa dissolved in saline (20 μg/mice) subcutaneously in the neck every day for four week. Whereas, HNG (S14G) dissolved in saline (1 μg/mice) was injected intra-peritoneally, 45 minutes prior to the Dexa injection. The vehicle group received saline only. The femur and tibia bones were dissected out and fixed in 4% formalin for 24 hrs, followed by decalcification in 10% EDTA and embedded in paraffin blocks. Five-micrometer-thick sections were prepared from these paraffin blocks. After one wash in dH2O, endogenous peroxidase activity was reduced by incubation in 3% hydrogen peroxide in methanol for 5 min at room temperature. The sections were additionally treated with 5 mg/ml hyaluronidase (Sigma-Aldrich, Inc, Steinheim, Germany) for 30 min at 37° C., then blocked in 3% horse serum and incubated overnight at +4° C. with anti-collagen type-X primary antibody (Quartett GmbH, Berlin, Germany; 1:30). Secondary anti-mouse biotinylated antibody (1:300) was purchased from DakoCytomation A/S (Glostrup, Denmark). Sections were washed in TBS, incubated with avidin-conjugated peroxidase (Vector Laboratories) for 60 min, and the resulting peroxidase activity was detected using a DAB Kit (Vector Laboratories). […] Minimum 4 measurements were taken from each sample and measured blindly. n=4-5/group, **p<0.01. […]

Substance: S14G-HN (MAPRGFSCLLLLTGEIDLPVKRRA) [HNG (S14G)]
- bone growth by itself ([1]; HNG alone, 100 nM, day 12, vs control): improved bone growth by itself; also recorded: trend to promote bone growth on its own
- rescue of the growth of bones ([1]; HNG in combination with 25 nM bortezomib, p<0.001): up to 50%
- rescue of growth impairment ([1]; HNG with bortezomib 50 nM and above): not able to rescue the growth impairment
- rescue from Dexa-induced growth retardation ([1]; different doses of HNG added 30 min prior to Dexa 1 μM): significantly rescued the bones from Dexa-induced growth retardation
- bortezomib-induced up-regulation and activation of AIF and BAX [2]: suppressed
- type-X collagen expression (height) (type-X collagen; Dexa 20 μg/mice + HNG 1 μg/mice every day for four weeks, vs Dexa alone, p<0.01): significantly increased
- type-X collagen expression (height) (type-X collagen; HNG only, 1 μg/mice every day for four weeks): also increased
